{"source": "patent US8309606B2", "about": "“Compounds for use in the treatment of autoimmune diseases, immuno-allergical diseases and organ or tissue transplantation rejection” (Novaremed Limited, priority 2002, dated 2012)", "system": "spleen cells±ConA", "assay": "Proliferation responses of splenocytes ±Con A, [3H]thymidine incorporation", "type": "cell-based, mice", "details": "for Con A1 / Con A2 / No Con A: incorporated radioactivity", "method": "Spleen cells obtained from native or concanavalin A (Con A)-treated mice were examined in-vitro for their response to T-cell-dependent mitogens. Cells were plated in quadruplicate in 96-well, flat-bottom, microtiter plates (4×10^5 cells/0.2 ml/well) in RPMI-1640 medium supplemented with 5% heat inactivated FCS, 2 mM L-glutamine, 100 U/ml penicillin, […] streptomycin and various concentrations of compound 10 ([…]). All plates were incubated for 48 h in humidified atmosphere of 5% CO2 in air at 37° C., and then pulsed for 18 h with […] ^3[H] thymidine. Cells from each microculture were harvested on fiberglass filters using a multiharvester, and incorporated radioactivity was measured using standard scintillation techniques."}
{"compound": "CC(CO)COCC(C)OCC(C)OCC(C)OCC(C)OCC(C)OCC(C)OCC(C)OCC(C)OCC(C)OCC(C)OCC(C)OCC(C)OCC(C)OCC(C)OCC(C)OCC(C)OCC(Cc1ccccc1)NC(=O)CCc1ccc(O)cc1", "note": "(stereo not shown) [Compound 10]", "values": [{"measurement": "Con A1", "setting": "100 pg/ml", "result": 1280}, {"measurement": "Con A2", "setting": "100 pg/ml", "result": 3481}, {"measurement": "No Con A", "setting": "100 pg/ml", "result": 271}, {"measurement": "Con A1", "setting": "1 ng/ml", "result": 733}, {"measurement": "Con A2", "setting": "1 ng/ml", "result": 3609}, {"measurement": "No Con A", "setting": "1 ng/ml", "result": 284}, {"measurement": "Con A1", "setting": "100 ng/ml", "result": 880}, {"measurement": "Con A2", "setting": "100 ng/ml", "result": 2489}, {"measurement": "No Con A", "setting": "100 ng/ml", "result": 274}, {"measurement": "Con A1", "setting": "1 μg/ml", "result": 986}, {"measurement": "Con A2", "setting": "1 μg/ml", "result": 2156}, {"measurement": "No Con A", "setting": "1 μg/ml", "result": 333}, {"measurement": "Con A1", "setting": "100 μg/ml", "result": 598}, {"measurement": "Con A2", "setting": "100 μg/ml", "result": 1380}, {"measurement": "No Con A", "setting": "100 μg/ml", "result": 170}, {"measurement": "effect on the proliferation of the splenocytes", "setting": "incubation with compound (Table 1)", "result": "significant inhibition"}]}
